# Laboratory results from patent US20240058283A1, “THE MODE OF ACTION OF N-MeDCPA ON TRPC CHANNELS” (West Virginia University Board of Governors on Behalf of …, priority 2022, published 2024).
# Assays:
# Serum levels in vivo = assay: Serum levels in vivo
# Source text: We have extensively investigated inhibitors of the store-operated Ca^2+ entry (SOCE) pathway as a target for control of bone erosion, particularly in the context of arthritis. […] On this basis, we have assessed the possibility that DCPA and/or DCPA analogs might be effective inhibitors of bone erosion in the context of arthritis^6. While this has proven to the case (data not shown), this investigation has opened new questions regarding the true identity of the DCPA target. […] As such, we have assessed the possibility that DCPA and its analogs may have a different target, especially within the context of arthritis.
# osteoclasts = details: reference 3, cited from earlier work
smiles,measurement,setting,value
"CCC(=O)Nc1ccc(Cl)c(Cl)c1 [DCPA, 3,4-dichloropropionaniline]",serum levels,Serum levels in vivo,≤ 100 nM
same,formation of bone degrading osteoclasts,osteoclasts; in vitro,reduced the formation of bone degrading osteoclasts
same,concentration needed to block osteoclast differentiation,osteoclasts; no block below this concentration,≥ 100 µM
